Results from ChEMBL document CHEMBL1147667, “Synthesis and structure-activity relationship study of antidiabetic penta-O-galloyl-D-glucopyranose and its analogues” (2006).

test system: 3T3-L1; experiment: [1-3H]-2-deoxy-D-glucose uptake in 3T3 L1 adipocytes; format: functional, Mus musculus; set-up: reference not given here

Point of comparison: `O=C(OC[C@H]1O[C@@H](OC(=O)c2cc(O)c(O)c(O)c2)[C@H](OC(=O)c2cc(O)c(O)c(O)c2)[C@@H](OC(=O)c2cc(O)c(O)c(O)c2)[C@H]1OC(=O)c1cc(O)c(O)c(O)c1)c1cc(O)c(O)c(O)c1`, Activity 19 Bq. Against it:
- O=C(OC[C@H]1O[C@@H](OC(=O)c2cc(O)cc(O)c2)[C@H](OC(=O)c2cc(O)cc(O)c2)[C@@H](OC(=O)c2cc(O)cc(O)c2)[C@@H]1OC(=O)c1cc(O)cc(O)c1)c1cc(O)cc(O)c1 — higher, 30 Bq
- O=C(O[C@H]1O[C@H](CO)[C@@H](OC(=O)c2cc(O)c(O)c(O)c2)[C@H](OC(=O)c2cc(O)c(O)c(O)c2)[C@H]1OC(=O)c1cc(O)c(O)c(O)c1)c1cc(O)c(O)c(O)c1 — higher, 143 Bq
- O=C(O[C@H]1O[C@H](CCl)[C@@H](OC(=O)c2cc(O)c(O)c(O)c2)[C@H](OC(=O)c2cc(O)c(O)c(O)c2)[C@H]1OC(=O)c1cc(O)c(O)c(O)c1)c1cc(O)c(O)c(O)c1 — higher, 181 Bq
- O=C(OC[C@H]1O[C@H](OC(=O)c2cc(O)c(O)c(O)c2)[C@H](OC(=O)c2cc(O)c(O)c(O)c2)[C@@H](OC(=O)c2cc(O)c(O)c(O)c2)[C@@H]1OC(=O)c1cc(O)c(O)c(O)c1)c1cc(O)c(O)c(O)c1 — higher, 145 Bq
- O=C(OC[C@H]1O[C@H](OC(=O)c2cc(O)cc(O)c2)[C@H](OC(=O)c2cc(O)cc(O)c2)[C@@H](OC(=O)c2cc(O)cc(O)c2)[C@@H]1OC(=O)c1cc(O)cc(O)c1)c1cc(O)cc(O)c1 — lower, 16 Bq
- O=C(OC[C@H]1O[C@@H](OC(=O)c2ccc(O)cc2)[C@H](OC(=O)c2ccc(O)cc2)[C@@H](OC(=O)c2ccc(O)cc2)[C@@H]1OC(=O)c1ccc(O)cc1)c1ccc(O)cc1 — higher, 27 Bq
- O=C(OC[C@H]1O[C@@H](OC(=O)c2cc(O)c(O)c(O)c2)[C@H](OC(=O)c2cc(O)c(O)c(O)c2)[C@H](OC(=O)c2cc(O)c(O)c(O)c2)[C@@H]1OC(=O)c1cc(O)c(O)c(O)c1)c1cc(O)c(O)c(O)c1 — higher, 34 Bq
- C[C@H]1O[C@@H](OC(=O)c2cc(O)c(O)c(O)c2)[C@H](OC(=O)c2cc(O)c(O)c(O)c2)[C@@H](OC(=O)c2cc(O)c(O)c(O)c2)[C@@H]1OC(=O)c1cc(O)c(O)c(O)c1 — lower, 15 Bq
- O=C(OC[C@H]1O[C@H](OC(=O)c2cc(O)c(O)c(O)c2)C[C@@H](OC(=O)c2cc(O)c(O)c(O)c2)[C@@H]1OC(=O)c1cc(O)c(O)c(O)c1)c1cc(O)c(O)c(O)c1 — higher, 29 Bq
- O=C(OC[C@@H]1C[C@H](OC(=O)c2cc(O)c(O)c(O)c2)[C@@H](OC(=O)c2cc(O)c(O)c(O)c2)[C@H](OC(=O)c2cc(O)c(O)c(O)c2)O1)c1cc(O)c(O)c(O)c1 — higher, 30 Bq
- O=C(OC[C@H]1O[C@@H](OC(=O)c2cc(O)c(O)c(O)c2)C[C@@H](OC(=O)c2cc(O)c(O)c(O)c2)[C@@H]1OC(=O)c1cc(O)c(O)c(O)c1)c1cc(O)c(O)c(O)c1 — lower, 15 Bq
- O=C(O[C@@H]1OC[C@@H](OC(=O)c2cc(O)c(O)c(O)c2)[C@H](OC(=O)c2cc(O)c(O)c(O)c2)[C@@H]1OC(=O)c1cc(O)c(O)c(O)c1)c1cc(O)c(O)c(O)c1 — lower, 7 Bq
- O=C(OC[C@H]1O[C@H](OC(=O)c2ccc(O)c(O)c2)[C@H](OC(=O)c2ccc(O)c(O)c2)[C@@H](OC(=O)c2ccc(O)c(O)c2)[C@@H]1OC(=O)c1ccc(O)c(O)c1)c1ccc(O)c(O)c1 — lower, 10 Bq
- O=C(OC[C@H]1O[C@H](OC(=O)c2cc(O)c(O)c(O)c2)[C@H](OC(=O)c2cc(O)c(O)c(O)c2)[C@H](OC(=O)c2cc(O)c(O)c(O)c2)[C@@H]1OC(=O)c1cc(O)c(O)c(O)c1)c1cc(O)c(O)c(O)c1 — higher, 23 Bq
- O=C(OC[C@H]1O[C@@H](OC(=O)c2cc(O)c(O)c(O)c2)[C@@H](OC(=O)c2cc(O)c(O)c(O)c2)[C@@H](OC(=O)c2cc(O)c(O)c(O)c2)[C@@H]1OC(=O)c1cc(O)c(O)c(O)c1)c1cc(O)c(O)c(O)c1 — the same, 19 Bq
- CC(=O)OC[C@H]1O[C@H](OC(C)=O)[C@H](OC(C)=O)[C@@H](OC(C)=O)[C@@H]1OC(C)=O — higher, 31 Bq
- O=C(O[C@H]1OC[C@@H](OC(=O)c2cc(O)c(O)c(O)c2)[C@H](OC(=O)c2cc(O)c(O)c(O)c2)[C@H]1OC(=O)c1cc(O)c(O)c(O)c1)c1cc(O)c(O)c(O)c1 — higher, 124 Bq
- O=C(O[C@H]1OC[C@@H](OC(=O)c2cc(O)c(O)c(O)c2)[C@H](OC(=O)c2cc(O)c(O)c(O)c2)[C@@H]1OC(=O)c1cc(O)c(O)c(O)c1)c1cc(O)c(O)c(O)c1 — higher, 21 Bq
- O=C(OC[C@H]1O[C@@H](OC(=O)c2ccc(O)c(O)c2)[C@H](OC(=O)c2ccc(O)c(O)c2)[C@@H](OC(=O)c2ccc(O)c(O)c2)[C@@H]1OC(=O)c1ccc(O)c(O)c1)c1ccc(O)c(O)c1 — higher, 20 Bq
- O=C(OC[C@H]1O[C@H](OC(=O)c2ccccc2)[C@H](OC(=O)c2ccccc2)[C@@H](OC(=O)c2ccccc2)[C@@H]1OC(=O)c1ccccc1)c1ccccc1 — higher, 34 Bq
- O=C(O[C@@H]1OC[C@@H](OC(=O)c2cc(O)c(O)c(O)c2)[C@H](OC(=O)c2cc(O)c(O)c(O)c2)[C@H]1OC(=O)c1cc(O)c(O)c(O)c1)c1cc(O)c(O)c(O)c1 — higher, 21 Bq
- O=C(OC[C@@H]1C[C@H](OC(=O)c2cc(O)c(O)c(O)c2)[C@@H](OC(=O)c2cc(O)c(O)c(O)c2)[C@@H](OC(=O)c2cc(O)c(O)c(O)c2)O1)c1cc(O)c(O)c(O)c1 — higher, 28 Bq
- O=C(OC[C@H]1OC[C@H](OC(=O)c2cc(O)c(O)c(O)c2)[C@@H](OC(=O)c2cc(O)c(O)c(O)c2)[C@@H]1OC(=O)c1cc(O)c(O)c(O)c1)c1cc(O)c(O)c(O)c1 — lower, 5 Bq
- O=C(OC[C@H]1O[C@H](OC(=O)c2ccc(O)cc2)[C@H](OC(=O)c2ccc(O)cc2)[C@@H](OC(=O)c2ccc(O)cc2)[C@@H]1OC(=O)c1ccc(O)cc1)c1ccc(O)cc1 — higher, 30 Bq
- O=C(O[C@H]1OC[C@@H](OC(=O)c2cc(O)c(O)c(O)c2)[C@@H](OC(=O)c2cc(O)c(O)c(O)c2)[C@H]1OC(=O)c1cc(O)c(O)c(O)c1)c1cc(O)c(O)c(O)c1 — lower, 10 Bq
- C[C@H]1O[C@H](OC(=O)c2cc(O)c(O)c(O)c2)[C@H](OC(=O)c2cc(O)c(O)c(O)c2)[C@@H](OC(=O)c2cc(O)c(O)c(O)c2)[C@@H]1OC(=O)c1cc(O)c(O)c(O)c1 — higher, 115 Bq
- O=C(OC[C@H]1O[C@H](OC(=O)c2cc(O)c(O)c(O)c2)[C@@H](OC(=O)c2cc(O)c(O)c(O)c2)[C@@H](OC(=O)c2cc(O)c(O)c(O)c2)[C@@H]1OC(=O)c1cc(O)c(O)c(O)c1)c1cc(O)c(O)c(O)c1 — higher, 20 Bq
- O=C(OC[C@H]1O[C@H](OC(=O)c2cc(O)c(O)c(O)c2)[C@H](OC(=O)c2cc(O)c(O)c(O)c2)C[C@@H]1OC(=O)c1cc(O)c(O)c(O)c1)c1cc(O)c(O)c(O)c1 — lower, 11 Bq
- O=C(OC[C@H]1O[C@@H](OC(=O)c2cc(O)c(O)c(O)c2)[C@H](OC(=O)c2cc(O)c(O)c(O)c2)C[C@@H]1OC(=O)c1cc(O)c(O)c(O)c1)c1cc(O)c(O)c(O)c1 — lower, 7 Bq
- O=C(O[C@@H]1OC[C@@H](OC(=O)c2cc(O)c(O)c(O)c2)[C@@H](OC(=O)c2cc(O)c(O)c(O)c2)[C@H]1OC(=O)c1cc(O)c(O)c(O)c1)c1cc(O)c(O)c(O)c1 — lower, 12 Bq
- OC[C@H]1O[C@H](O)[C@H](O)[C@@H](O)[C@@H]1O — higher, 34 Bq
- O=C(OC[C@H]1O[C@H](OC(=O)c2cc(O)c(O)c(O)c2)[C@H](OC(=O)c2cc(O)c(O)c(O)c2)[C@@H](OC(=O)c2cc(O)c(O)c(O)c2)[C@H]1OC(=O)c1cc(O)c(O)c(O)c1)c1cc(O)c(O)c(O)c1 — higher, 22 Bq
- CC(=O)OC[C@H]1O[C@@H](OC(C)=O)[C@H](OC(C)=O)[C@@H](OC(C)=O)[C@@H]1OC(C)=O — higher, 24 Bq
- O=C(OC[C@H]1OC(OC(=O)c2cc(O)c(O)c(O)c2)[C@H](OC(=O)c2cc(O)c(O)c(O)c2)[C@@H](OC(=O)c2cc(O)c(O)c(O)c2)[C@@H]1OC(=O)c1cc(O)c(O)c(O)c1)c1cc(O)c(O)c(O)c1 (single isomer, unassigned) [PENTAGALLOYL GLUCOSE] — higher, 107 Bq
- O=C(OC1OC[C@H](OC(=O)c2cc(O)c(O)c(O)c2)[C@H](OC(=O)c2cc(O)c(O)c(O)c2)[C@H]1OC(=O)c1cc(O)c(O)c(O)c1)c1cc(O)c(O)c(O)c1 (single isomer, unassigned; 63) — higher, 23 Bq
- O=C(OC1OC[C@H](OC(=O)c2cc(O)c(O)c(O)c2)[C@H](OC(=O)c2cc(O)c(O)c(O)c2)[C@H]1OC(=O)c1cc(O)c(O)c(O)c1)c1cc(O)c(O)c(O)c1 (single isomer, unassigned; 65) — lower, 14 Bq
- O=c1oc2c(O)c(O)cc3c(=O)oc4c(O)c(O)cc1c4c23 [ELLAGIC ACID] — higher, 27 Bq
- COC(=O)c1cc(O)c(O)c(O)c1 [GALLIC ACID METHYL ESTER] — higher, 20 Bq
- O=C(O)c1cc(O)c(O)c(O)c1 [GALLIC ACID] — higher, 31 Bq
